Patent publication US20230027066A1 (Urovant Sciences GmbH, priority 2019, published 2023)

System: men and women with overactive bladder
Assay: Phase 3 study of vibegron 75 mg vs placebo and tolterodine ER 4 mg, 12 weeks, efficacy (voiding and urine volume diary)
Format: in vivo, human
Details: for Daily Urgency Episodes: Reduction from Baseline at Week 12, LS Mean: vibegron 75 mg, tolterodine ER 4 mg; for Patients with 100% Reduction in UUI from Baseline to Week 12, Unadjusted n (%) / Patients with at Least 75% Reduction in UUI from Baseline to Week 12, Unadjusted n (%) / Patients with 100% Reduction in UUI from Baseline to Week 12, Adjusted n (%) / Patients with at Least 75% Reduction in UUI from Baseline to Week 12, Adjusted n (%): FAS-I; for Patients with 100% Reduction in UUI from Baseline to Week 12, Adjusted n (%) / Patients with at Least 75% Reduction in UUI from Baseline to Week 12, Adjusted n (%): MI for missing values; for 75% UUI responders, Active-Placebo CMH Difference / 100% UUI responders, Active-Placebo CMH Difference: stratified by sex; for Urgency, Change from Baseline LS Mean / Urgency, LS Mean Difference active - Placebo: baseline to Week 12
Description: Enrollment of patients included individuals with OAB Wet (those with UUI, the involuntary loss of urine accompanied by urgency) and OAB Dry (those without UUI). A total of 1,518 patients were randomized across 215 study sites into one of three groups for a 12-week treatment period.
The study consisted of a Screening Period (1 to 5 weeks), a single-blind Run-in Period (2 weeks), a randomized double-blind Treatment Period (12 weeks), and a Follow-up Period (4 weeks).
Tolterodine ER 4 mg was the active control. […] Between the Baseline and Week 12 Visits, patients had study assessments at Week 4 and Week 8.
The Patient Voiding Diary was used by participants (via the eDiary or paper Diary) to record the frequency of daily OAB symptoms including all micturitions, urgency, incontinence, and main reason for incontinence by selecting the respective box for each symptom occurring during the course of a given day and night.
Urine volume data were collected separately by patients using the Urine Volume component of the eDiary, or the paper Urine Volume Chart. The Urine Volume Chart is a tool used in clinical practice and clinical investigation to assess voiding functions over a 24-hour period and is regarded as a useful instrument in the investigation of patients with voiding symptoms. Urine volume may be collected during any one (1) of the 7 Diary Days prior to the visit, and it should be recorded for ˜24 hours starting from the time the patient gets up for the day and continues until the time the patient gets up for the day on the next day.
For the purpose of this study, the number of micturitions was defined as the number of times a patient has voided in the toilet as indicated on the Patient Voiding Diary. Average daily micturitions were calculated using the daily entries in the Patient Voiding Diary, which was completed over the 7 days prior to each study visit. Average daily number of micturitions were calculated as the total number of micturitions that occurred on a Complete Diary Day divided by the number of Complete Diary Days in the Patient Voiding Diary. A complete diary day required confirmation by the patient in the Patient Voiding Diary that all voids and leakages had been recorded for the diary day. Baseline was defined as the average number of micturitions occurring during the last evaluable diary prior to the Baseline Visit.
The number of UUI episodes was defined as the number of times a patient had checked “urge” as the reason for accidental urine leakage. Average daily UUI episodes at each study visit were calculated in the same manner as described above for the micturition endpoint. The UUI endpoint were analyzed using only OAB Wet patients.
For the analysis of the co-primary endpoints (change from baseline in average number of daily micturitions at Week 12 and change from baseline in average number of daily urge urinary incontinence episodes at Week 12, and placebo adjustment of each), a mixed model for repeated measure (MMRM) with restricted maximum likelihood estimation was used. This model corrects for dropout and accounts for the fact that measurements taken on the same patient over time tend to be correlated by using all available information on patients within the same covariate set to derive an estimate of the treatment effect for a dropout-free population. The analysis model for each efficacy endpoint includes terms for treatment, visit, OAB Type (Wet vs Dry), Sex (Female vs Male), Region (US vs Rest of World), baseline score, and interaction of visit by treatment.
Primary inferences were drawn from treatment differences for the changes from baseline derived from the MMRM models at Week 12. As part of secondary objectives, the treatment differences for each post baseline visit were also derived using the same MMRM model. […]

[1] = 50% Total Incontinence Responders, Week 2
[2] = 50% Total Incontinence Responders, Week 4
[3] = 50% Total Incontinence Responders, Week 8
[4] = 50% Total Incontinence Responders, Week 12
[5] = Cox model with sex as covariate, >1 = more treated subjects attain reduction
[6] = Dry population, baseline to Week 2

Cc1ccc(O)c([C@H](CCN(C(C)C)C(C)C)c2ccccc2)c1 [Tolterodine ER, tolterodine, reference compound]
Average Volume Voided per Micturition, Mean (SD) [1]: 167.1 (75.27)
Average daily number of urgency episodes, Mean (SD) [1]: 5.68 (3.690)
Change from Baseline in Average Daily Number of Urgency Episodes, LS Mean (SE) [1]: −2.1 (0.17)
Change from Baseline in Average Volume Voided per Micturition, LS Mean [1]: 16.9 (4.12)
Change from baseline in Percent Dry Diary Days, LS Mean [1]: 23.9 (2.33) Percent
Percent Dry Diary Days, Mean (SD) [1]: 28.44 (35.758) Percent
Average Volume Voided per Micturition, Mean (SD) [2]: 171.3 (73.88)
Average daily number of urgency episodes, Mean (SD) [2]: 5.18 (3.663)
Change from Baseline in Average Daily Number of Urgency Episodes, LS Mean (SE) [2]: −2.6 (0.18)
Change from Baseline in Average Volume Voided per Micturition, LS Mean [2]: 16.3 (4.38)
Change from baseline in Percent Dry Diary Days, LS Mean [2]: 32.6 (2.69) Percent
Percent Dry Diary Days, Mean (SD) [2]: 36.82 (40.267) Percent
Average Volume Voided per Micturition, Mean (SD) [3]: 177.7 (76.78)
Average daily number of urgency episodes, Mean (SD) [3]: 4.68 (3.707)
Change from Baseline in Average Daily Number of Urgency Episodes, LS Mean (SE) [3]: −3.1 (0.21)
Change from Baseline in Average Volume Voided per Micturition, LS Mean [3]: 24.8 (4.56)
Change from baseline in Percent Dry Diary Days, LS Mean [3]: 40.0 (2.76) Percent
Percent Dry Diary Days, Mean (SD) [3]: 44.86 (40.529) Percent
Average Volume Voided per Micturition, Mean (SD) [4]: 175.4 (77.58)
Average daily number of urgency episodes, Mean (SD) [4]: 4.02 (3.539)
Change from Baseline in Average Daily Number of Urgency Episodes, LS Mean (SE) [4]: −3.6 (0.22)
Change from Baseline in Average Volume Voided per Micturition, LS Mean [4]: 21.1 (4.74)
Change from baseline in Percent Dry Diary Days, LS Mean [4]: 49.7 (2.68) Percent
Percent Dry Diary Days, Mean (SD) [4]: 55.43 (37.734) Percent
Average Volume Voided per Micturition, Mean (SD) (75% UUI Responders, Week 2): 170.6 (77.20)
Average daily number of urgency episodes, Mean (SD) (75% UUI Responders, Week 2): 5.37 (3.577)
Change from Baseline in Average Volume Voided per Micturition, LS Mean (75% UUI Responders, Week 2): 17.5 (4.96)
Change from baseline in average daily number of urgency episodes, LS Mean (75% UUI Responders, Week 2): −2.3 (0.21)
Average Volume Voided per Micturition, Mean (SD) (75% UUI Responders, Week 4): 174.8 (73.04)
Average daily number of urgency episodes, Mean (SD) (75% UUI Responders, Week 4): 4.93 (3.675)
Change from Baseline in Average Volume Voided per Micturition, LS Mean (75% UUI Responders, Week 4): 16.2 (5.27)
Change from baseline in average daily number of urgency episodes, LS Mean (75% UUI Responders, Week 4): −2.8 (0.23)
Average Volume Voided per Micturition, Mean (SD) (75% UUI Responders, Week 8): 182.1 (77.27)
Average daily number of urgency episodes, Mean (SD) (75% UUI Responders, Week 8): 4.42 (3.677)
Change from Baseline in Average Volume Voided per Micturition, LS Mean (75% UUI Responders, Week 8): 26.1 (5.51)
Change from baseline in average daily number of urgency episodes, LS Mean (75% UUI Responders, Week 8): −3.3 (0.25)
Average Volume Voided per Micturition, Mean (SD) (75% UUI Responders, Week 12): 177.3 (77.70)
Average daily number of urgency episodes, Mean (SD) (75% UUI Responders, Week 12): 3.67 (3.542)
Change from Baseline in Average Volume Voided per Micturition, LS Mean (75% UUI Responders, Week 12): 19.1 (5.83)
Change from baseline in average daily number of urgency episodes, LS Mean (75% UUI Responders, Week 12): −3.9 (0.27)
Daily Urgency Episodes: Reduction from Baseline at Week 12, LS Mean (Age ≥65 years): −2.1
Daily Urgency Episodes: Reduction from Baseline at Week 12, LS Mean (Age ≥75 years): −2.4
Daily Urgency Episodes: Reduction from Baseline at Week 12, LS Mean (All patients): −2.5
Patients with 100% Reduction in UUI from Baseline to Week 12, Unadjusted n (%) (Baseline Number of UUI <3): 62 (33.2) n (%)
Patients with at Least 75% Reduction in UUI from Baseline to Week 12, Unadjusted n (%) (Baseline Number of UUI <3): 98 (52.4) n (%)
Patients with 100% Reduction in UUI from Baseline to Week 12, Adjusted n (%) (Baseline Number of UUI <3): 54 (29.0) n (%)
Patients with at Least 75% Reduction in UUI from Baseline to Week 12, Adjusted n (%) (Baseline Number of UUI <3): 91 (48.4) n (%)
75% UUI responders, Active-Placebo CMH Difference (Baseline Number of UUI <3): 10.1
100% UUI responders, Active-Placebo CMH Difference (Baseline Number of UUI <3): 1.5
Patients with 100% Reduction in UUI from Baseline to Week 12, Unadjusted n (%) (Baseline Number of UUI ≥3): 23 (17.4) n (%)
Patients with at Least 75% Reduction in UUI from Baseline to Week 12, Unadjusted n (%) (Baseline Number of UUI ≥3): 54 (40.9) n (%)
Patients with 100% Reduction in UUI from Baseline to Week 12, Adjusted n (%) (Baseline Number of UUI ≥3): 13 (9.6) n (%)
Patients with at Least 75% Reduction in UUI from Baseline to Week 12, Adjusted n (%) (Baseline Number of UUI ≥3): 44 (33.7) n (%)
75% UUI responders, Active-Placebo CMH Difference (Baseline Number of UUI ≥3): 8.4
100% UUI responders, Active-Placebo CMH Difference (Baseline Number of UUI ≥3): 2.6
Hazard Ratio, 50% reduction in urgency episodes, Compared to Placebo Using Proportional Hazards [5]: 1.225
Hazard Ratio, 100% reduction in UUI episodes, Compared to Placebo Using Proportional Hazards [5]: 1.141
Urgency, Change from Baseline LS Mean (Dry population, Age <65): −2.3 (57)
Urgency, LS Mean Difference active - Placebo (Dry population, Age <65): −0.8
Urgency, Change from Baseline LS Mean (Dry population, Age ≥65): −1.5 (35)
Urgency, LS Mean Difference active - Placebo (Dry population, Age ≥65): 0.2
Average daily number of urgency episodes, Mean (SD) (Dry population, Week 2): 6.87 (4.260)
Change from baseline in average daily number of urgency episodes, LS Mean (Dry population, Week 2): −1.4 (0.27)
Urgency episodes, Active - Placebo LS Mean Difference (Dry population, Week 2): −0.6 (0.37)
Average daily number of urgency episodes, Mean (SD) (Dry population, Week 4): 7.03 (4.865)
Change from baseline in average daily number of urgency episodes, LS Mean (Dry population, Week 4): −1.6 (0.29)
Urgency episodes, Active - Placebo LS Mean Difference (Dry population, Week 4): −0.7 (0.40)
Average daily number of urgency episodes, Mean (SD) (Dry population, Week 8): 6.25 (4.957)
Change from baseline in average daily number of urgency episodes, LS Mean (Dry population, Week 8): −2.2 (0.34)
Urgency episodes, Active - Placebo LS Mean Difference (Dry population, Week 8): −1.0 (0.46)
Average daily number of urgency episodes, Mean (SD) (Dry population, Week 12): 6.56 (5.480)
Change from baseline in average daily number of urgency episodes, LS Mean (Dry population, Week 12): −2.0 (0.36)
Urgency episodes, Active - Placebo LS Mean Difference (Dry population, Week 12): −0.4 (0.49)
Patients with at Least 50% Reduction in Urgency Episodes, Adjusted (%) [6]: 16.3%
Patients with at Least 50% Reduction in Urgency Episodes, Adjusted n [6]: 16
Patients with at Least 50% Reduction in Urgency Episodes, Unadjusted (%) [6]: 16.3%
Patients with at Least 50% Reduction in Urgency Episodes, Unadjusted n [6]: 16
